Measurements reported in PubChem BioAssay (NCI).
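Test compounds were applied to cells in 96-well plates for 48 hours at 5 doses. TGI marks complete inhibition of growth.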

Tests used:
Experiment in all cases: NCI tumour cell line growth inhibition, 48 h
[1] = system: 786-0 renal
[2] = system: A498 renal
[3] = system: A549 NSCLC
[4] = system: ACHN renal
[5] = system: BT-549 breast
[6] = system: CAKI-1 renal
[7] = system: CCRF-CEM leukemia
[8] = system: COLO 205 colon
[9] = system: DU-145 prostate
[10] = system: EKVX NSCLC
[11] = system: HCC-2998 colon
[12] = system: HCT-116 colon
[13] = system: HCT-15 colon
[14] = system: HL-60(TB) leukemia
[15] = system: HOP-62 NSCLC
[16] = system: HOP-92 NSCLC
[17] = system: HS 578T breast
[18] = system: HT29 colon
[19] = system: IGROV1 ovarian
[20] = system: K-562 leukemia
[21] = system: KM12 colon
[22] = system: LOX IMVI melanoma
[23] = system: M14 melanoma
[24] = system: MALME-3M melanoma
[25] = system: MCF7 breast
[26] = system: MDA-MB-231 breast
[27] = system: MDA-MB-435
[28] = system: MDA-N
[29] = system: MOLT-4 leukemia
[30] = system: NCI-H226 lung
[31] = system: NCI-H23 lung
[32] = system: NCI-H460 lung
[33] = system: NCI-H522 lung
[34] = system: NCI/ADR-RES ovarian
[35] = system: OVCAR-3 ovarian
[36] = system: OVCAR-4 ovarian
[37] = system: OVCAR-5 ovarian
[38] = system: OVCAR-8 ovarian
[39] = system: PC-3 prostate
[40] = system: RXF 393 renal
[41] = system: SF-268 CNS
[42] = system: SF-295 CNS
[43] = system: SF-539 CNS
[44] = system: SK-MEL-28 melanoma
[45] = system: SK-MEL-5 melanoma
[46] = system: SK-OV-3 ovarian
[47] = system: SN12C renal
[48] = system: SNB-19 CNS
[49] = system: SNB-75 CNS
[50] = system: SW-620 colon
[51] = system: T-47D breast
[52] = system: TK-10 renal
[53] = system: U251 CNS
[54] = system: UACC-257 melanoma
[55] = system: UACC-62 melanoma
[56] = system: UO-31 renal
[57] = system: RPMI-8226 leukemia
[58] = system: SK-MEL-2 melanoma

O=C(O)C(F)(F)C(F)(F)C(F)(F)C(F)(F)C(F)(F)C(F)(F)C(F)(F)C(F)(F)F
TGI [1]: > 100 µM
TGI [2]: > 100 µM
TGI [3]: > 100 µM
TGI [4]: > 100 µM
TGI [5]: > 100 µM
TGI [6]: > 100 µM
TGI [7]: > 100 µM
TGI [8]: > 100 µM
TGI [9]: > 100 µM
TGI [10]: > 100 µM
TGI [11]: > 100 µM
TGI [12]: > 100 µM
TGI [13]: > 100 µM
TGI [14]: 62.4 µM
TGI [15]: > 100 µM
TGI [16]: 58.7 µM
TGI [17]: > 100 µM
TGI [18]: > 100 µM
TGI [19]: > 100 µM
TGI [20]: 92.4 µM
TGI [21]: > 100 µM
TGI [22]: > 100 µM
TGI [23]: > 100 µM
TGI [24]: > 100 µM
TGI [25]: > 100 µM
TGI [26]: > 100 µM
TGI [27]: > 100 µM
TGI [28]: > 100 µM
TGI [29]: > 100 µM
TGI [30]: > 100 µM
TGI [31]: > 100 µM
TGI [32]: > 100 µM
TGI [33]: > 100 µM
TGI [34]: > 100 µM
TGI [35]: > 100 µM
TGI [36]: > 100 µM
TGI [37]: > 100 µM
TGI [38]: > 100 µM
TGI [39]: > 100 µM
TGI [40]: > 100 µM
TGI [41]: > 100 µM
TGI [42]: > 100 µM
TGI [43]: > 100 µM
TGI [44]: > 100 µM
TGI [45]: > 100 µM
TGI [46]: 86.6 µM
TGI [47]: > 100 µM
TGI [48]: > 100 µM
TGI [49]: > 100 µM
TGI [50]: > 100 µM
TGI [51]: > 100 µM
TGI [52]: > 100 µM
TGI [53]: > 100 µM
TGI [54]: > 100 µM
TGI [55]: > 100 µM
TGI [56]: > 100 µM

Nc1ncnc2c1ccn2COC(CO)CO
TGI [1]: > 100 µM
TGI [2]: > 100 µM
TGI [3]: > 100 µM
TGI [4]: > 100 µM
TGI [5]: > 100 µM
TGI [6]: > 100 µM
TGI [7]: > 100 µM
TGI [9]: > 100 µM
TGI [10]: > 100 µM
TGI [11]: > 100 µM
TGI [12]: > 100 µM
TGI [13]: > 100 µM
TGI [14]: > 100 µM
TGI [15]: > 100 µM
TGI [16]: > 100 µM
TGI [17]: > 100 µM
TGI [18]: > 100 µM
TGI [19]: > 100 µM
TGI [20]: > 100 µM
TGI [21]: > 100 µM
TGI [22]: > 100 µM
TGI [23]: > 100 µM
TGI [24]: > 100 µM
TGI [25]: > 100 µM
TGI [26]: > 100 µM
TGI [27]: > 100 µM
TGI [28]: > 100 µM
TGI [29]: > 100 µM
TGI [30]: > 100 µM
TGI [31]: > 100 µM
TGI [32]: > 100 µM
TGI [33]: > 100 µM
TGI [34]: > 100 µM
TGI [35]: > 100 µM
TGI [36]: > 100 µM
TGI [37]: > 100 µM
TGI [38]: > 100 µM
TGI [39]: > 100 µM
TGI [57]: > 100 µM
TGI [40]: > 100 µM
TGI [41]: > 100 µM
TGI [42]: > 100 µM
TGI [43]: > 100 µM
TGI [58]: > 100 µM
TGI [44]: > 100 µM
TGI [45]: > 100 µM
TGI [46]: > 100 µM
TGI [47]: > 100 µM
TGI [48]: > 100 µM
TGI [49]: > 100 µM
TGI [50]: > 100 µM
TGI [51]: > 100 µM
TGI [52]: > 100 µM
TGI [53]: > 100 µM
TGI [54]: > 100 µM
TGI [55]: > 100 µM
TGI [56]: > 100 µM
